Measurements reported in patent US20040081618A1, “Method of screening physiologically active substance” (priority 2000, published 2004).

Experiments:
HL-60 cells [1] = test: Analysis of expression using DNA microarray (740 clones from DNA microbeads screening) in TPA-treated differentiated HL-60 cells; type: cell-based, human; conditions: 4 mM DGE 100 μL in 10 mL, 6 hours, then TPA, RNA 4 hours thereafter, expression ratio 0.55 or less or 1.8 or more
Description: The reaction for PCR was carried out by using a primer pair having the sequences shown in SEQ ID NO: 10 and SEQ ID NO: 11 of Sequence Listing, with the 740 clones of plasmids obtained in Example 3 as a template. Next, the amplified product was purified by ethanol precipitation, and thereafter the product was dissolved in 1×SolutionT (manufactured by Takara Shuzo Co., Ltd.) so as to have a concentration of 0.3 μg/μl, and this solution was used as a spotting solution. The spotting solution was spotted on MAS-coated slide glass (manufactured by Matsunami Glass), amino-group carrying slide glass, by using Affymetrix 417 Arrayer (manufactured by Affymetrix). The spotted glass was incubated at 37° C. and humidity of 90% for 1 hour, and thereafter cross-linked by UV irradiation at energy of 60 mJ/cm^2. Further, the slide glass was washed once with 0.2% SDS and then twice with distilled water, and thereafter immersed in a blocking solution comprising 2.75 g of succinic anhydride, 162.5 ml of N-methyl-2-pyrrolidone and 15 ml of 1 M borate buffer (pH 8.0) for 20 minutes, to block free amino groups. Next, the slide glass was washed twice with distilled water and subjected to thermal denaturation in boiling water for 2 minutes, and rapidly cooled in 100% ethanol at ice temperature. Thereafter, the slide glass was dried by a low-speed centrifugation at 1000 rpm or so, and used for the following experiment. […]
A PolyA(+) RNA was prepared from HL-60 cells prepared in item (2) of Example 4 by using Trizol Reagent (manufactured by Gibco BRL) and Oligotex-dT30 <Super> (manufactured by Takara Shuzo Co., Ltd.) in accordance with the protocol for each of the kits. Next, each of cDNAs labeled with Cy3 and Cy5 was prepared by using RNA Fluorescence Labeling Core Kit (M-MLV Version) (manufactured by Takara Shuzo Co., Ltd.) in accordance with the protocol for the kit with 1.0 μg of PolyA(+) RNA as a template, and their cDNAs were mixed in the combinations of the sample RNA shown in Table 8.
Next, hybridization of the DNA microarray prepared in item (1) of Example 4 with the above-mentioned mixtures (4 kinds) of Cy3-labeled cDNA and Cy5-labeled cDNA was carried out in accordance with the instruction manual of IntelliGene (manufactured by Takara Shuzo Co., Ltd.), and the array was subjected to procedures of washing and drying. Subsequently, the fluorescence images were obtained for Cy3 (excitation wavelength: 532 nm, detection wavelength: 570 nm) and Cy5 (excitation wavelength: 635 nm, detection wavelength: 660 nm) by using Affymetrix 428 Array Scanner (manufactured by Affymetrix). […]

[2] = tested on: plastic adherent monocytes; test: Gene expression analysis with Human Cytokine CHIP (ver. 2.0) in LPS-treated plastic adherent monocytes; type: cell-based
Description: Four-hundred milliliters of blood was collected from a human normal individual donor. The collected blood was diluted 2-folds with PBS(−), overlaid on Ficoll-paque (manufactured by Pharmacia), and centrifuged at 500×g for 20 minutes. The peripheral blood mononuclear cells (PBMCs) in the intermediate layer was collected with a pipette, and washed with RPMI 1640 medium (manufactured by Bio Whittaker). The collected PBMCs were suspended in a storage solution of 90% FCS (manufactured by JRH Biosciences)/10% dimethyl sulfoxide, and stored in liquid nitrogen. During the experiment, these stored PBMCs were rapidly melted in water bath at 37° C., and washed with RPMI 1640 medium containing 10 μg/ml Dnase (manufactured by Calbiochem). Thereafter, the number of living cells was calculated by trypan blue staining method, and subjected to each experiment.
PBMCs were suspended in RPMI 1640 medium containing 5% human serum of blood type-AB, 0.1 mM nonessential amino acid, 1 mM sodium pyruvate, 2 mM L-glutamine (hereinabove manufactured by Bio Whittaker), 10 mM HEPES (manufactured by nakalai tesque), and 1% streptomycin-penicillin (manufactured by Gibco BRL) (hereinafter simply referred to as “5HRPMI medium”) so as to have a concentration of 1×10^7 cells/mL. Thereafter, 15 ml of the suspension was spread on a 100-mm petri dish (manufactured by Asahi Techno Glass), and the cells were incubated in a wet-type incubator at 37° C. in the presence of 5% CO2 for 1.5 hours. […]
The synthesis of cDNA was carried out in accordance with the method described in item (2) of Example 1, provided that the combination of the solutions of fluorescence-labeled DNA was in accordance with that shown in Table 6. […]
The fluorescence signal was scanned for each spot of the above-mentioned chip by using Affymetrix 428 Array Scanner (manufactured by Takara Shuzo Co., Ltd.). The fluorescence signal was quantified for each spot by using ImaGene (manufactured by Takara Shuzo Co., Ltd., BD001) on the bases of the image data. […]

HL-60 cells [3] = test: Gene expression analysis with Human Cytokine CHIP (ver. 1.0) in TPA-treated neutrophile-like differentiated HL-60 cells; type: cell-based; conditions: genes showing fluctuation by TPA; 100 μL of 4 mM DGE aqueous solution added to 10 mL of 10^6 cells/mL, 6 hours, then TPA, total RNA 4 hours thereafter
Description: HL-60 cells (ATCC CCL-240) were suspended in RPMI 1640 medium (manufactured by Bio Whittaker, 12-702F) containing 10% fetal bovine serum (manufactured by JRH Biosciences) and 1.3% dimethyl sulfoxide, and the cells were cultured at 37° C. for one week in the presence of 5% carbon dioxide gas to induce differentiation to neutrophile-like cells.
The cells obtained as described above were collected by centrifugation, and suspended in 10% fetal bovine serum-containing RPMI 1640 medium so as to have a concentration of 10^6 cells/mL, and 10-mL portions of the cells were added to a 10-cm petri dish. […]
Twenty-five micrograms of each of the total RNAs obtained as described above and 100 pg of λ poly A^+ RNA-A (manufactured by Takara Shuzo Co., Ltd., TX802) were subjected to synthesis reaction of fluorescence-labeled cDNA by using RNA Fluorescence Labeling Core Kit (manufactured by Takara Shuzo Co., Ltd., TX807) and 1 mM FluoroLink Cy3-dUTP or Cy5-dUTP (manufactured by Amersham-Pharmacia Biotech, PA53022(Cy3), PA55022(Cy5) in accordance with the instruction for the kit and the resulting cDNA was purified. The solutions of fluorescence-labeled DNA were mixed in the combination of Table 4, and the mixture was subjected to a chloroform-isoamyl alcohol (24:1) extraction. […]

[4] = clones decreased by treatment with TPA
[5] = clones increased by treatment with TPA

Compound: O=C1C=CC(CO)OC1O [DGE, L-glycero-1,5-epoxy-1αβ,6-dihydroxy-cis-hex-3-en-2-one]
- Expression of Group C-3 clones (NDRG1, ADAR, SF3B2, ILF3, VARS2, SEQ ID NO: 12; Tables 9, 11) (HL-60 cells [1]; [4]): further decreased
- Expression of Group D-3 clones (EEF1A1, RPL17, RPL24, SFRS2, TPT1, UQCRB, RPS15A, RPL27; Tables 10, 11) (HL-60 cells [1]; [4]): further increased
- Expression of Group A-3 clones (STAT6, FLJ22298 fis clone HRC04637; Tables 9, 11) (HL-60 cells [1]; [5]): further decreased
- Expression of Group B-3 clones (SUI1, HSPC014; Tables 9, 11) (HL-60 cells [1]; [5]): further increased
- Increase by LPS in expression of Group E genes (IL2RA, IL6, CD166, IRF1, IL15RA, NFKB1, CASP1, IL1B, TNF-α, GRO1, IL1A, INHBA, IL7R, PBEF, LARC, IL8; Table 7) ([2]; 10 μL of 20 mM DGE aqueous solution in 10 mL medium, 4 hours, then LPS, total RNA 4 hours thereafter): suppressed
- Expression of Group G genes (Heme oxygenase-1 HMOX1; Table 7) ([2]; DGE+LPS versus negative control): increased
- Expression of Group F genes (CSF1R, CXCR4, ENG; Table 7) ([2]; genes not fluctuating by LPS, DGE+LPS versus negative control): decreased
- Expression of Group A-1 genes (BMP-6, CCR-1, HGF, ICAM-1, IL-1β, IL-16, LIF, Osteopontin, TNF-α, Neuropilin-1; Table 5) (HL-60 cells [3]): suppressed
- Expression of Group B-1 genes (Heme oxygenase-1, Thioredoxin reductase-1; Table 5) (HL-60 cells [3]): accelerated
